Data as given in PMC9583322, “Vicinal Diaryl-Substituted Isoxazole and Pyrazole Derivatives with In Vitro Growth Inhibitory and In Vivo Antitumor Activity” (ACS Omega, 2022).

Experiments:
Huh7 = assay: SRB cytotoxicity assay; assay type: cell-based, human; conditions: Homo sapiens, Huh-7, 72 h, 72 h treatment
Procedure: (§1) HepG2, FOCUS, Hep3B, Mahlavu, Huh7, Hep40, and PLC-PRF-5 hepatocellular carcinoma cells; MCF-7, MDA-MB-231, MDA-MB-468, SKBR3, and ZR-75 breast cancer cells; and normal-like epithelial MCF-10A breast cells were cultured in low-glucose Dulbecco’s modified Eagle’s medium (DMEM) (Biological Industries-BI) supplemented with 10% fetal bovine serum (FBS) (Gibco/Thermo Fisher Scientific), 2 mM L-Glutamine (Gibco/Thermo Fisher Scientific), 100 Units/mL Penicillin/Streptomycin, and 0.1 mM non-essential amino acid (Gibco/Thermo Fisher Scientific). SNU475 hepatocellular carcinoma cells were maintained in RPMI (Biological Industries-BI) supplemented with 10% fetal bovine serum (FBS) (Gibco/Thermo Fisher Scientific), L-Glutamine (Gibco/Thermo Fisher Scientific), and 100 Units/mL Penicillin/Streptomycin, while ZR-75 breast cancer cells were cultured RPMI (Biological Industries-BI) supplemented with 10% fetal bovine serum (FBS) (Gibco/Thermo Fisher Scientific), 1× sodium pyruvate, and %4.5 glucose. Normal-like MCF-10A breast cells were sustained in DMEM/HAM’S F12 (Hyclone) supplemented with 10% fetal bovine serum (FBS) (Gibco/Thermo Fisher Scientific), EGF (20 ng/mL), Hydrocortisone ([…]), cholera toxin (100 ng/mL), insulin (10 μg/mL), and 100 Units/mL Penicillin/Streptomycin. The cells were cultivated at 37 °C in a humidified incubator under 5% CO2.
(§2) Mahlavu, FOCUS, SNU475 (1000 cell/well in 150 μL/well); Huh7, MCF7 (2500 cell/well in 150 μL/well); HepG2, Hep3B, SKBR3 (3000 cell/well in 150 μL/well); PLC-PRF-5, Hep40 (5000 cell/well in 150 μL/well); MDA-MB-231, MDA-MB-468, MCF10A (6000 cell/well in 150 μL/well); and ZR-75 (7500 cell/well in 150 μL/well) were cultured in 96-well plates and were inoculated in an incubator for 24 hours. The compounds were dissolved in dimethyl sulfoxide (DMSO) (Sigma, St Louis, MO) as a 20 mM stock solution. The treatment of cells with the compounds was done in a concentration range starting from 40 to 2.5 μM. The compounds which were below 2.5 μM were tested in a concentration range from 2.5 to 0.15 μM. End of the 72h compound treatment, the cells were fixed using 10% (v/v) trichloroacetic acid (MERCK) for an hour and washed with ddH2O, and left for air-drying. The fixed plates were stained with 50 μL of sulforhodamine B (SRB) solution (Sigma) at RT for 10 min. To remove unbound SRB dye, acetic acid was used to wash cells three times and left for drying. The protein-bound SRB was solubilized with 10 mM Tris-base (Sigma) and their absorbance was measured with a 96-well plate reader at 515 nm wavelength (ELx800, Biotek). The IC50 values of compounds were calculated in comparison with control group DMSO. Data with R^2 values larger than 0.9 are considered significant.

MCF7 = assay: SRB cytotoxicity assay; assay type: cell-based, human; conditions: 72 h treatment
Procedure: as §1, §2

Mahlavu = assay: SRB cytotoxicity assay; assay type: cell-based, human; conditions: Homo sapiens, Mahlavu, 72 h, 72 h treatment
Procedure: as §1, §2

| Structure (SMILES) | melting point | IC50 (Huh7) | IC50 (MCF7) | IC50 (MCF7; Homo sapiens, MCF7, 72 h) | IC50 (Mahlavu) |
| --- | --- | --- | --- | --- | --- |
| Cc1ccccc1COc1ccc(-c2ccnn2-c2ccc(Cl)cc2)nc1 [compound 86, 2-(1-(4-Chlorophenyl)-1H-pyrazol-5-yl)-5-((2-methylbenzyl)oxy)pyridine] | 108.4 to 110.4 °C | 2 µM | 21.7 µM | ≥ 20 µM | 7.1 µM |
| Cc1ccccc1COc1ccc(-c2ccnn2-c2ccc(Cl)cc2)cc1F [compound 89, 1-(4-Chlorophenyl)-5-(3-fluoro-4-((2-methylbenzyl)oxy)phenyl)-1H-pyrazole] | 95 to 95.4 °C | > 20 µM |  | > 20 µM | > 20 µM |
| Cc1ccccc1COc1ccc(-c2ccnn2-c2ccc(Cl)cc2)cn1 [compound 87, 5-(1-(4-Chlorophenyl)-1H-pyrazol-5-yl)-2-((2-methylbenzyl)oxy)pyridine] | 126.5 to 127.8 °C | > 20 µM |  | > 20 µM | > 20 µM |
| Cc1nc(-c2ccc(OCc3ccccc3C)cc2)c(-c2ccc(Cl)cc2)s1 [compound 75, 5-(4-Chlorophenyl)-2-methyl-4-(4-((2-methylbenzyl)oxy)phenyl)thiazole] | 90.5 to 92.1 °C | > 20 µM |  | > 20 µM | > 20 µM |
| Cc1onc(-c2ccc(OCc3ccccc3Cl)cc2)c1-c1ccc(Cl)cc1 [compound 16, 4-(4-Chlorophenyl)-3-(4-((2-chlorobenzyl)oxy)phenyl)-5-methylisoxazole] | 105.2 to 106.4 °C | 20 µM |  | > 20 µM |  |
| Cc1cccnc1COc1ccc(-c2noc(C)c2-c2ccc(Cl)cc2)cc1 [compound 36, 4-(4-Chlorophenyl)-5-methyl-3-(4-((3-methylpyridin-2-yl)methoxy)phenyl)isoxazole] | 138.7 to 141.2 °C | 9.4 µM | > 20 µM | ≥ 20 µM |  |
| Cc1ccccc1COc1ccc(-n2nccc2-c2ccc(Cl)cc2)cc1 [compound 78, 5-(4-Chlorophenyl)-1-(4-((2-methylbenyl)oxy)phenyl)-1H-pyrazole] | 145.2 to 146.4 °C | > 20 µM |  | > 20 µM | > 20 µM |
| Cc1onc(-c2ccc(OCc3ccc(C(F)(F)F)o3)cc2)c1-c1ccc(Cl)cc1 [compound 42, 4-(4-Chlorophenyl)-5-methyl-3-(4-((5-(trifluoromethyl)furan-2-yl)methoxy)phenyl) isoxazole] | 105.7 to 106.8 °C | 13.4 µM |  | 14 µM |  |
| Cc1onc(-c2ccc(OCc3ccc(C(=O)O)cc3)cc2)c1-c1ccc(Cl)cc1 [compound 29, 4-((4-(4-(4-Chlorophenyl)-5-methylisoxazol-3-yl)phenoxy)methyl)benzoic acid] | 210.8 to 212.4 °C | 8.6 µM |  | 15 µM |  |
| Cc1cccc(COc2ccc(-c3noc(C)c3-c3ccc(Cl)cc3)cc2)n1 [compound 37, 4-(4-Chlorophenyl)-5-methyl-3-(4-((6-methylpyridin-2-yl)methoxy)phenyl)isoxazole] | 126.1 to 127.5 °C | 6.9 µM |  | 12.9 µM |  |
| Cc1ccccc1COc1ccc(-c2onc(C)c2-c2ccc(Cl)cc2)cc1 [compound 60, 4-(4-Chlorophenyl)-3-methyl-5-(4-((2-methylbenzyl)oxy)phenyl)isoxazole] | 153.8 to 154.9 °C | 3.8 µM | 19.6 µM | ~19 µM | 9.4 µM |
| Cc1ncccc1COc1ccc(-c2noc(C)c2-c2ccc(Cl)cc2)cc1 [compound 35, 4-(4-Chlorophenyl)-5-methyl-3-(4-((2-methylpyridin-3-yl)methoxy)phenyl)isoxazole] | 107.2 to 108.8 °C | 3.9 µM |  | 6.1 µM |  |
| Cc1onc(-c2ccc(OCc3ccc(C#N)cc3)cc2)c1-c1ccc(Cl)cc1 [compound 27, 4-((4-(4-(4-Chlorophenyl)-5-methylisoxazol-3-yl)phenoxy)methyl)benzonitrile] | 138.5 to 139.5 °C | 11.7 µM |  | > 20 µM |  |
| Cc1ccccc1COc1ccc(-c2noc(C)c2-c2ccncc2)cc1 [compound 55, 5-Methyl-3-(4-((2-methylbenzyl)oxy)phenyl)-4-(pyridin-4-yl)isoxazole] | 128.5 to 129.3 °C | > 20 µM |  | > 20 µM |  |
| Cc1cccc(COc2ccc(-c3noc(C)c3-c3ccc(Cl)cc3)cc2)c1C [compound 30, 4-(4-Chlorophenyl)-3-(4-((2,3-dimethylbenzyl)oxy)phenyl)-5-methylisoxazole] | 167.2 to 168.5 °C | 15.3 µM |  | > 20 µM |  |
| Cc1ccccc1COc1ccc(-c2noc(C)c2-c2ccc(F)cc2)cc1 [compound 45, 5-Methyl-4-(4-fluorophenyl)-3-(4-((2-methylbenzyl)oxy)phenyl)isoxazole] | 119 to 120.5 °C | 16.7 µM |  | > 20 µM |  |
| Cc1ccccc1COc1ccc(-c2noc(C)c2-c2ccc(C#N)cc2)cc1 [compound 48, 5-Methyl-4-(4-cyanophenyl)-3-(4-((2-methylbenzyl)oxy)phenyl)isoxazole] | 135.3 to 137.1 °C | 6.7 µM | > 20 µM | ≥ 20 µM |  |
| Cc1onc(-c2ccc(OCc3ccc(Cl)nc3)cc2)c1-c1ccc(Cl)cc1 [compound 38, 4-(4-Chlorophenyl)-3-(4-((6-chloropyridin-3-yl)methoxy)phenyl)-5-methylisoxazole] | 168.2 to 170.8 °C | > 20 µM |  | > 20 µM |  |
| Cc1onc(-c2ccc(OCc3ccccc3C(F)(F)F)cc2)c1-c1ccc(Cl)cc1 [compound 18, 4-(4-Chlorophenyl)-5-methyl-3-(4-((2-(trifluoromethyl)benzyl)oxy)phenyl)isoxazole] | 132.8 to 134.4 °C | 14.2 µM |  | > 20 µM |  |
| Cc1cc(COc2ccc(-c3noc(C)c3-c3ccc(Cl)cc3)cc2)n(C)n1 [compound 40, 4-(4-Chlorophenyl)-3-(4-((1,3-dimethyl-1H-pyrazol-5-yl)methoxy)phenyl)-5-methylisoxazole] | 156.4 to 157.9 °C | 0.9 µM |  | 12.2 µM |  |
| COC(=O)c1ccc(COc2ccc(-c3noc(C)c3-c3ccc(Cl)cc3)cc2)cc1 [compound 28, Methyl-4-((4-(4-(4-chlorophenyl)-5-methylisoxazol-3-yl)phenoxy)methyl)benzoate] | 110.7 to 111.9 °C | 12.7 µM |  | > 20 µM |  |
| COc1ccccc1COc1ccc(-c2noc(C)c2-c2ccc(Cl)cc2)cc1 [compound 12, 4-(4-Chlorophenyl)-3-(4-((2-methoxybenzyl)oxy)phenyl)-5-methylisoxazole] | 156.8 to 157.7 °C | > 20 µM |  | > 20 µM |  |
| Cc1onc(-c2ccc(OCc3cccc(C#N)c3)cc2)c1-c1ccc(Cl)cc1 [compound 22, 3-((4-(4-(4-Chlorophenyl)-5-methylisoxazol-3-yl)phenoxy)methyl)benzonitrile] | 114.4 to 115.6 °C | 20.7 µM |  | > 20 µM |  |
